Counter-ions that a name gives are not always drawn.
Assays:
[1] = tested on: Smn protein in SMA patient fibroblast cells (GM03813); experiment: Smn protein assay in cultured cells (SMN HTRF); format: cell-based, human; details: SMA patient fibroblast cells, 48 hours; for maximum fold (Fold) increase of Smn protein: 7-point concentration data, fold relative to vehicle control; for EC1.5x for Smn protein expression: 7-point concentration curve, SMN HTRF, concentration producing 1.5 times Smn protein vs DMSO vehicle control
Procedure, shortened: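 Patient-derived SMA fibroblasts are plated, given compound for 48 h, then lysed in RIPA buffer with protease inhibitors. Lysate Smn is detected by an anti-SMN d2/kryptate HTRF pair incubated overnight. The normalized ΔF is divided by the vehicle ΔF to give fold change, from which EC1.5× and maximum fold are taken.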

[2] = tested on: SMN2 minigene mRNA (SMN2-A minigene) in HEK293H cells; experiment: SMN2 minigene mRNA splicing RT-qPCR assay in cultured cells; format: cell-based, human; details: Homo sapiens, HEK293-H; concentration increasing full length SMN2 mRNA 1.5-fold relative to vehicle-treated cells; HEK293H cells with SMN2-A minigene, 24 hours, 7-point concentration data; read-out: EC1.5x for production of full length SMN2 mRNA
Procedure, shortened: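 Cells are seeded, left to attach 4-6 h, then dosed with test compound across seven concentrations and incubated 24 h. Lysates undergo RT-qPCR with primers/probe specific to the exon 7-containing minigene transcript, co-amplified with GAPDH. Fold change over vehicle is calculated, and EC1.5× marks the 1.5-fold point.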

Compound | melting point | maximum fold (Fold) increase of Smn protein [1] | EC (1.5-fold increase) [2] [µM] | EC1.5x for Smn protein expression [1]
COc1ccc(-c2cc(=O)n3cc(N4CCC(N(C)C)CC4)ccc3c2)cc1F (as salt: acetate) [Compound 203, 7-[4-(dimethylamino)piperidin-1-yl]-2-(3-fluoro-4-methoxyphenyl)-4H-quinolizin-4-one] | 188 to 192 °C | – | – | –
O=c1cc(-c2cc(F)c(O)c(F)c2)nc2ccc(N3CCNCC3)cn12 (as salt: hydrochloride) [Compound 71, 2-(3,5-difluoro-4-hydroxyphenyl)-7-(piperazin-1-yl)-4H-pyrido[1,2-a]pyrimidin-4-one] | 290 °C (dec.) | – | – | –
COc1ccc(-c2cc(=O)n3cc(N4CCN(C)CC4)ccc3n2)cc1 [Compound 2, 2-(4-methoxyphenyl)-7-(4-methylpiperazin-1-yl)-4H-pyrido[1,2-a]pyrimidin-4-one] | 178 to 182 °C | ** (a fold increase between >1.2 and ≤1.35 is indicated by two stars (**)) | 1 to 3 | –
COc1ccc(-c2cc(=O)n3cc(N4CCN[C@H](C)C4)ccc3n2)cc1 [Compound 3, 2-(4-methoxyphenyl)-7-[(3R)-3-methylpiperazin-1-yl]-4H-pyrido[1,2-a]pyrimidin-4-one] | 152 to 154 °C | *** (a fold increase between >1.35 and ≤1.5 is indicated by three stars (***)) | 0.3 to 1 | ** (an EC1.5× between >1 μM and ≤3 μM is indicated by two stars (**))
COc1ccc(-c2cc(=O)n3cc(N4C[C@@H](C)N[C@@H](C)C4)ccc3n2)cc1 [Compound 4, 7-[(3R,5S)-3,5-dimethylpiperazin-1-yl]-2-(4-methoxyphenyl)-4H-pyrido[1,2-a]pyrimidin-4-one] | 185 to 187 °C | * (A maximum fold increase of ≤1.2 is indicated by one star (*)) | 1 to 3 | –
COc1ccc(-c2cc(=O)n3cc(N4CCCNCC4)ccc3n2)cc1 [Compound 5, 7-(1,4-diazepan-1-yl)-2-(4-methoxyphenyl)-4H-pyrido[1,2-a]pyrimidin-4-one] | 149 to 152 °C | * (A maximum fold increase of ≤1.2 is indicated by one star (*)) | 3 to 30 | –
COc1ccc(-c2cc(=O)n3cc(N4CCNC(C)(C)C4)ccc3n2)cc1OC [Compound 7, 2-(3,4-dimethoxyphenyl)-7-(3,3-dimethylpiperazin-1-yl)-4H-pyrido[1,2-a]pyrimidin-4-one] | 138 to 140 °C | *** (a fold increase between >1.35 and ≤1.5 is indicated by three stars (***)) | 0.3 to 1 | –
COc1ccc(-c2cc(=O)n3cc(N4CCN[C@H](C)C4)ccc3n2)cc1OC [Compound 8, 2-(3,4-dimethoxyphenyl)-7-[(3R)-3-methylpiperazin-1-yl]-4H-pyrido[1,2-a]pyrimidin-4-one] | 181 to 184 °C | **** (a fold increase between >1.5 and ≤1.65 is indicated by four stars (****)) | 0.1 to 0.3 | ** (an EC1.5× between >1 μM and ≤3 μM is indicated by two stars (**))
CCN1CCN(c2ccc3nc(-c4ccc(OC)c(OC)c4)cc(=O)n3c2)CC1 [Compound 9, 2-(3,4-dimethoxyphenyl)-7-(4-ethylpiperazin-1-yl)-4H-pyrido[1,2-a]pyrimidin-4-one] | 159 to 162 °C | *** (a fold increase between >1.35 and ≤1.5 is indicated by three stars (***)) | 1 to 3 | –
COc1ccc(-c2cc(=O)n3cc(N4CCCN(C)CC4)ccc3n2)cc1OC [Compound 11, 2-(3,4-dimethoxyphenyl)-7-(4-methyl-1,4-diazepan-1-yl)-4H-pyrido[1,2-a]pyrimidin-4-one] | 166 to 168 °C | *** (a fold increase between >1.35 and ≤1.5 is indicated by three stars (***)) | 0.3 to 1 | –
COc1ccc(-c2cc(=O)n3cc(N4CCN[C@@H](C)C4)ccc3n2)cc1 [Compound 12, 2-(4-methoxyphenyl)-7-[(3S)-3-methylpiperazin-1-yl]-4H-pyrido[1,2-a]pyrimidin-4-one] | 158 to 160 °C | *** (a fold increase between >1.35 and ≤1.5 is indicated by three stars (***)) | 0.3 to 1 | –
COc1ccc(-c2cc(=O)n3cc(N4CCN(C)CC4)ccc3n2)cc1OC [Compound 13, 2-(3,4-dimethoxyphenyl)-7-(4-methylpiperazin-1-yl)-4H-pyrido[1,2-a]pyrimidin-4-one] | 183 to 185 °C | ** (a fold increase between >1.2 and ≤1.35 is indicated by two stars (**)) | 1 to 3 | –
COc1ccc(-c2cc(=O)n3cc(N4C[C@@H](C)N[C@@H](C)C4)ccc3n2)cc1OC [Compound 14, 2-(3,4-dimethoxyphenyl)-7-[(3R,5S)-3,5-dimethylpiperazin-1-yl]-4H-pyrido[1,2-a]pyrimidin-4-one] | 182 to 187 °C | *** (a fold increase between >1.35 and ≤1.5 is indicated by three stars (***)) | 1 to 3 | –
CCCN1CCN(c2ccc3nc(-c4ccc(OC)c(OC)c4)cc(=O)n3c2)CC1 [Compound 15, 2-(3,4-dimethoxyphenyl)-7-(4-propylpiperazin-1-yl)-4H-pyrido[1,2-a]pyrimidin-4-one] | 185 to 189 °C | *** (a fold increase between >1.35 and ≤1.5 is indicated by three stars (***)) | 1 to 3 | –
COc1ccc(-c2cc(=O)n3cc(N4CCCN(C)CC4)ccc3n2)cc1 [Compound 16, 2-(4-methoxyphenyl)-7-(4-methyl-1,4-diazepan-1-yl)-4H-pyrido[1,2-a]pyrimidin-4-one] | 137 to 141 °C | * (A maximum fold increase of ≤1.2 is indicated by one star (*)) | 1 to 3 | –
O=c1cc(-c2ccc3c(c2)OCO3)nc2ccc(N3CCNCC3)cn12 [Compound 18, 2-(1,3-benzodioxol-5-yl)-7-(piperazin-1-yl)-4H-pyrido[1,2-a]pyrimidin-4-one] | 198 to 201 °C | **** (a fold increase between >1.5 and ≤1.65 is indicated by four stars (****)) | 0.3 to 1 | ** (an EC1.5× between >1 μM and ≤3 μM is indicated by two stars (**))
CCc1nc(C)cn2nc(-c3cc(=O)n4cc(OCC5CCNCC5)ccc4n3)cc12 [Compound 831, 2-(4-ethyl-6-methylpyrazolo[1,5-a]pyrazin-2-yl)-7-(piperidin-4-ylmethoxy)-4H-pyrido[1,2-a]pyrimidin-4-one] | – | **** (a fold increase between >1.5 and ≤1.65 is indicated by four stars (****)) | 0.1 to 0.3 | ** (an EC1.5× between >1 μM and ≤3 μM is indicated by two stars (**))
CCc1nc(C)cn2nc(-c3cc(=O)n4cc(OCCN5CCCCC5)ccc4n3)cc12 [Compound 832, 2-(4-ethyl-6-methylpyrazolo[1,5-a]pyrazin-2-yl)-7-[2-(piperidin-1-yl)ethoxy]-4H-pyrido[1,2-a]pyrimidin-4-one] | – | ***** (a fold increase >1.65 is indicated by five stars (*****)) | 0.1 to 0.3 | *** (an EC1.5× between >0.3 μM and ≤1 μM is indicated by three stars (***))
CCc1nc(C)cn2nc(-c3cc(=O)n4cc(OCCCN5CCOCC5)ccc4n3)cc12 [Compound 833, 2-(4-ethyl-6-methylpyrazolo[1,5-a]pyrazin-2-yl)-7-[3-(morpholin-4-yl)propoxy]-4H-pyrido[1,2-a]pyrimidin-4-one] | – | ***** (a fold increase >1.65 is indicated by five stars (*****)) | < 0.1 | ** (an EC1.5× between >1 μM and ≤3 μM is indicated by two stars (**))
CCc1nc(C)cn2nc(-c3cc(=O)n4cc(OCCCN(C)C)ccc4n3)cc12 [Compound 834, 7-[3-(dimethylamino)propoxy]-2-(4-ethyl-6-methylpyrazolo[1,5-a]pyrazin-2-yl)-4H-pyrido[1,2-a]pyrimidin-4-one] | – | ***** (a fold increase >1.65 is indicated by five stars (*****)) | < 0.1 | **** (an EC1.5x≤0.3 μM is indicated by four stars (****))
Cc1cn2nc(-c3cc(=O)n4cc(N5C[C@H]6CN(C)C[C@H]6C5)ccc4n3)cc2c(C)n1 [Compound 835, 2-(4,6-dimethylpyrazolo[1,5-a]pyrazin-2-yl)-7-[(3aR,6aS)-5-methylhexahydropyrrolo[3,4-c]pyrrol-2(1H)-yl]-4H-pyrido[1,2-a]pyrimidin-4-one] | – | ***** (a fold increase >1.65 is indicated by five stars (*****)) | < 0.1 | **** (an EC1.5x≤0.3 μM is indicated by four stars (****))
COc1ccc(-c2cc(=O)n3cc(C4=CCNCC4)cnc3n2)cc1OC [Cpd 353, 2-(3,4-dimethoxyphenyl)-7-(1,2,3,6-tetrahydropyridin-4-yl)-4H-pyrimido[1,2-a]pyrimidin-4-one] | – | ** (a fold increase between >1.2 and ≤1.35 is indicated by two stars (**)) | 0.1 to 0.3 | –

Reference: patent US11753407B2, “Compounds for treating spinal muscular atrophy” (PTC Therapeutics, Inc., priority 2012, dated 2023)
